Values quoted from earlier work as cited in patent US8512751B2, “Pharmaceutical compositions for sleep disorders” (Collegium Pharmaceutical, Inc., priority 2004, dated 2013).
Where a name gives a salt, the structure may show the parent alone.

Assays:
[1] = water and normal saline
sleep apnea [2] = details: for effect in individuals with sleep apnea: patients, literature
serotonin uptake = details: animal models
sleep apnea [3] = details: animal model of sleep apnea
nocturnal sleep = details: healthy adults; 20, 40 and 60 mg
[4] = man, single oral 40-mg dose
[5] = in vivo

In the case of `Cc1nccn1CC1CCc2c(c3ccccc3n2C)C1=O` (racemic) [Ondansetron HCl dihydrate, (±) 1,2,3,9-tetrahydro-9-methyl-3-[(2-methyl-1H-imidazol-1-yl)methyl]-4H-carbazol-4-one, monohydrochloride, dihydrate], the solubility [1] is given as “soluble in water and normal saline”.
For `Cc1nccn1CC1CCc2c(c3ccccc3n2C)C1=O` (stereo not drawn) [Ondansetron], the “Bioavailability, effect of antacids” value (antacids) is listed as “unaffected”, the Mean bioavailability (healthy subjects, single 8-mg tablet) is listed as “approximately 56%” and the “radiolabeled dose recovered from the urine as the parent compound” value (humans) is listed as “approximately 5%”. For the same compound, the “AUC from a 16-mg tablet greater than predicted from an 8-mg tablet dose” value (oral tablets) was 24%, the half-life (plasma, humans) was 3 to 5 h and the “Bioavailability, effect of food” value (presence of food) was “slightly enhanced”. For the same compound, the “extent and rate of absorption, gender difference” value (single dose) was “greater in women than men”.
In the case of `CNCCCC1c2ccccc2C=Cc2ccccc21` [Protriptyline], the “effect in individuals with sleep apnea” value (sleep apnea [2]) is listed as “variable results and frequent and significant side effects”.
In the case of `NCC[C@@H](Oc1ccc(C(F)(F)F)cc1)c1ccccc1` [R-norfluoxetine], the “inhibition of serotonin uptake, activity relative to fluoxetine” value (serotonin uptake) is given as “significantly less potent than the parent drug”.
In the case of `NCC[C@H](Oc1ccc(C(F)(F)F)cc1)c1ccccc1` [S-norfluoxetine], the “inhibition of serotonin uptake, activity relative to fluoxetine” value (serotonin uptake) is listed as “essentially equivalent to R- or S-fluoxetine”.
For `CC(=O)Nc1nnc(S(N)(=O)=O)s1` [acetazolamide], the “effect in individuals with sleep apnea” value (sleep apnea [2]) is listed as “produced variable improvement in individuals with primary central apneas but caused an increase in obstructive apneas”.
In the case of `Nc1ncnc2c1ncn2[C@@H]1O[C@H](CO)[C@@H](O)[C@H]1O` [adenosine], the reduction of apnea (sleep apnea [3]) is listed as “somewhat effective in reducing apnea”.
For `CCN1CC(CCN2CCOCC2)C(c2ccccc2)(c2ccccc2)C1=O` (stereo not drawn) [doxapram], the “effect in individuals with sleep apnea” value (sleep apnea [2]) is given as “decrease the length of apneas but did not alter the average arterial oxygen saturation”.
In the case of `CNCCC(Oc1ccc(C(F)(F)F)cc1)c1ccccc1` (stereo not drawn) [fluoxetine], the “individuals with OSAS with measurable benefits” value (sleep apnea [2]; initial evidence) is given as “approximately 50%”, the “effects on nocturnal sleep” value (nocturnal sleep) is given as “reduced the total sleep time and the duration of rapid eye movement (REM) sleep and increased awake activity and stage 1 (drowsy) sleep during the night” and the “number of eye movements, EOG and EMG activity on treatment” value (EOG and EMG activity; REM, stages 1, 2, and slow-wave sleep) is given as “significantly increases the number of eye movements”. For the same compound, the “patients with increased EOG and EMG activity on treatment in every sleep stage” value (EOG and EMG activity; in vivo) was “Thirty-four”, the peak plasma concentrations [4] was 15 to 55 ng/mL and the “time of peak plasma concentrations” value [4] was 6 to 8 h.
For `CC1(C)Cc2cc(Cl)cc(C(=O)NC3CC4CCC(C3)[N+]4(C)C)c2O1` (stereo not drawn) [methylated zatosetron], the “ability to cross the blood-brain barrier” value [5] is listed as “lack the ability to cross the blood-brain barrier”.
In the case of `C=CCN1CC[C@]23c4c5ccc(O)c4O[C@H]2C(=O)CC[C@@]3(O)[C@H]1C5` [naloxone], the “effect in individuals with sleep apnea” value (sleep apnea [2]) is given as “only slightly helpful”.
For `Cn1c(=O)c2[nH]cnc2n(C)c1=O` [theophylline], the “effect in individuals with sleep apnea” value (sleep apnea [2]) is listed as “may benefit patients with central apnea but appears to be of no use in adult patients with obstructive apnea”.
In the case of medroxyprogesterone, the “effect in individuals with sleep apnea” value (sleep apnea [2]) is given as “no consistent benefit in OSAS”.
